From the supplement of paper PMC11208160

Tests used:
[1] = recombinant barcode read abundance after kanamycin selection (control-corrected) (log10(CPM+1)); higher = more efficient recombination; sequences stand for … in AGTGCAGAGAAAATCGGCCAGTTTTCTCTGCCTGCAGTCCGCATGCCGT…ATTTATGCAGCGGACTGCCTTTCTCCCAAAGTGATAAACCGGACAGTATCATGGACCGGTTTTCCCGGTAATCCGTATTTGCAAGGTTGGTTTCACT; site = the 11-nt target
Experimental: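 Same pooled E. coli target screen (IS621 bridge recombinase, kanamycin selection, control-corrected CPM, mean of 2 biological replicates). Here the two core-binding nucleotides of the LTG and RTG of the bridge RNA target-binding loop are mutated. Target and donor CT cores are held constant, and the other 9 guide positions match the target. The target is read from the library oligo sequence. Molecule = full bridge RNA written as DNA: nt 1-80 from the library oligo, rest WT scaffold.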

[2] = recombinant barcode read abundance after kanamycin selection (control-corrected) (log10(CPM+1)); higher = more efficient recombination; sequences stand for … in AGTGCAGAGAAAATCGGCCAGTTTTCTCTGCCTGCAGTCCGCATGCCGT…AGATTTATGCAGCGGACTGCCTTTCTCCCAAAGTGATAAACCGGACAGTATCATGGACCGGTTTTCCCGGTAATCCGTATTTGCAAGGTTGGTTTCACT; site = the 11-nt target
Summary of the method: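 Recombination efficiency in this pooled E. coli screen uses counts per million of barcodes at recombinant junctions, averaged and corrected against the control. The reported form is log10(CPM+1). Two replicates were plated on chloramphenicol/ampicillin LB agar as control and two on chloramphenicol/ampicillin/kanamycin with 0.1 mM IPTG.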

## AAACACACATGGGTTCTAACCTGTTGCCTAG [AAACACACTAG_LTGcore_CA_RTGcore_CT] (site AAACACACTAG) (LTG core: CA, RTG core: CT)
[1]
  recombinant barcode read abundance (log10): 0.327

## TTAGTCGCTTGGGTTCTAACCTGTTGCCT (site TTAGTAGCTAG)
[2]
  recombinant barcode read abundance (log10): 0.191

## TTAGTCGCTTGGGTTCTAACCTGTTGCCT (site TTAGTCGCTAG)
[2]
  recombinant barcode read abundance (log10): 2.28

## TTAGTCGCTTGGGTTCTAACCTGTTGCCT (site TTAGTGGCTAG)
[2]
  recombinant barcode read abundance (log10): 0.134

## TTAGTCGCTTGGGTTCTAACCTGTTGCCT (site TTAGTTGCTAG)
[2]
  recombinant barcode read abundance (log10): 0.0472

## TTAGTTGCTTGGGTTCTAACCTGTTGCCT (site TTAGTAGCTAG)
[2]
  recombinant barcode read abundance (log10): 0.225

## TTAGTTGCTTGGGTTCTAACCTGTTGCCT (site TTAGTCGCTAG)
[2]
  recombinant barcode read abundance (log10): 0.0596

## TTAGTTGCTTGGGTTCTAACCTGTTGCCT (site TTAGTGGCTAG)
[2]
  recombinant barcode read abundance (log10): 0.0286

## TTAGTTGCTTGGGTTCTAACCTGTTGCCT (site TTAGTTGCTAG)
[2]
  recombinant barcode read abundance (log10): 1.4

## TTCAACTCTTGGGTTCTAACCTGTTGCGT (site TTCAACTCTAC)
[2]
  recombinant barcode read abundance (log10): 1.56

## TTCAACTCTTGGGTTCTAACCTGTTGCGT (site TTCAAGTCTAC)
[2]
  recombinant barcode read abundance (log10): 0.0543

## TTCAAGCCTTGGGTTCTAACCTGTTGCGT (site TTCAAGCCTAC)
[2]
  recombinant barcode read abundance (log10): 1.17

## TTCAAGCCTTGGGTTCTAACCTGTTGCGT (site TTCAAGCCTCC)
[2]
  recombinant barcode read abundance (log10): 0.0397

## TTCAGCCCTTGGGTTCTAACCTGTTGCCT (site TACAGCCCTAG)
[2]
  recombinant barcode read abundance (log10): 0.456

## TTCAGCCCTTGGGTTCTAACCTGTTGCCT (site TTCAGCCCTAG)
[2]
  recombinant barcode read abundance (log10): 0.679

## TTCAGTCCTTGGGTTCTAACCTGTTGCAT (site TTAAGTCCTAG)
[2]
  recombinant barcode read abundance (log10): 0

## TTCAGTCCTTGGGTTCTAACCTGTTGCAT (site TTCAGTCCTAT)
[2]
  recombinant barcode read abundance (log10): 0.509

## TTCATGTCTTGGGTTCTAACCTGTTGCCT (site TTCACGTCTAG)
[2]
  recombinant barcode read abundance (log10): 0.0724

## TTCATGTCTTGGGTTCTAACCTGTTGCCT (site TTCATGTCTAG)
[2]
  recombinant barcode read abundance (log10): 0.811

## TTCCGTCCTTGGGTTCTAACCTGTTGCTT (site CGAGTGACTTG)
[2]
  recombinant barcode read abundance (log10): 0.0499

## TTCCGTCCTTGGGTTCTAACCTGTTGCTT (site TTCCGTCCTAA)
[2]
  recombinant barcode read abundance (log10): 0.0911

## TTCTATGCTTGGGTTCTAACCTGTTGCCT (site TCCTGTGCTAG)
[2]
  recombinant barcode read abundance (log10): 0.24

## TTCTATGCTTGGGTTCTAACCTGTTGCCT (site TTCTATGCTAG)
[2]
  recombinant barcode read abundance (log10): 0.187

## TTCTTCCCTTGGGTTCTAACCTGTTGCCT (site TTCTTCCCTAG)
[2]
  recombinant barcode read abundance (log10): 0.235

## TTCTTCCCTTGGGTTCTAACCTGTTGCCT (site TTGTACCCTAG)
[2]
  recombinant barcode read abundance (log10): 0.1

## TTGAATGCTTGGGTTCTAACCTGTTGCCT (site TTGAATGCTAG)
[2]
  recombinant barcode read abundance (log10): 1.15

## TTGAATGCTTGGGTTCTAACCTGTTGCCT (site TTGACTGCTAG)
[2]
  recombinant barcode read abundance (log10): 0.0516

## TTGAATGCTTGGGTTCTAACCTGTTGCCT (site TTGAGTGCTAG)
[2]
  recombinant barcode read abundance (log10): 0.0419

## TTGAATGCTTGGGTTCTAACCTGTTGCCT (site TTGATTGCTAG)
[2]
  recombinant barcode read abundance (log10): 0.214

## TTGAGGACTTGGGTTCTAACCTGTTGCGT (site TTGAGGACTAC)
[2]
  recombinant barcode read abundance (log10): 2.22

## TTGAGGACTTGGGTTCTAACCTGTTGCGT (site TTGAGGACTTG)
[2]
  recombinant barcode read abundance (log10): 0.147

## TTGATTACTTGGGTTCTAACCTGTTGCCA (site TTGAGTACTCG)
[2]
  recombinant barcode read abundance (log10): 0.0598

## TTGATTACTTGGGTTCTAACCTGTTGCCA (site TTGATTACTTG)
[2]
  recombinant barcode read abundance (log10): 0.0149

## TTGCCGACTTGGGTTCTAACCTGTTGCCA (site TTGACGACTTG)
[2]
  recombinant barcode read abundance (log10): 0.608

## TTGCCGACTTGGGTTCTAACCTGTTGCCA (site TTGCCGACTTG)
[2]
  recombinant barcode read abundance (log10): 0.503

## TTGCCGACTTGGGTTCTAACCTGTTGCCA (site TTGGCGACTTG)
[2]
  recombinant barcode read abundance (log10): 0.0806

## TTGCCGACTTGGGTTCTAACCTGTTGCCA (site TTGTCGACTTG)
[2]
  recombinant barcode read abundance (log10): 0.116

## TTGCCTTCTTGGGTTCTAACCTGTTGCCT (site TAGCCTTCTAG)
[2]
  recombinant barcode read abundance (log10): 0.106

## TTGCCTTCTTGGGTTCTAACCTGTTGCCT (site TCGCCTTCTAG)
[2]
  recombinant barcode read abundance (log10): 0.0687

## TTGCCTTCTTGGGTTCTAACCTGTTGCCT (site TGGCCTTCTAG)
[2]
  recombinant barcode read abundance (log10): 0.606

## TTGCCTTCTTGGGTTCTAACCTGTTGCCT (site TTGCCTTCTAG)
[2]
  recombinant barcode read abundance (log10): 0.686

## TTGGCAGCTTGGGTTCTAACCTGTTGCCT (site TTGGAAGCTAG)
[2]
  recombinant barcode read abundance (log10): 0.061

## TTGGCAGCTTGGGTTCTAACCTGTTGCCT (site TTGGCAGCTAG)
[2]
  recombinant barcode read abundance (log10): 2.08

## TTGGCAGCTTGGGTTCTAACCTGTTGCCT (site TTGGGAGCTAG)
[2]
  recombinant barcode read abundance (log10): 0.11

## TTGGCAGCTTGGGTTCTAACCTGTTGCCT (site TTGGTAGCTAG)
[2]
  recombinant barcode read abundance (log10): 0.0352

## TTGGCCTCTTGGGTTCTAACCTGTTGCCT (site GTGGCGTCTAG)
[2]
  recombinant barcode read abundance (log10): 0.15

## TTGGCCTCTTGGGTTCTAACCTGTTGCCT (site TTGGCCTCTAG)
[2]
  recombinant barcode read abundance (log10): 1.27

## TTGGCGACTTGGGTTCTAACCTGTTGCCA (site TTGACGACTTG)
[2]
  recombinant barcode read abundance (log10): 0.221

## TTGGCGACTTGGGTTCTAACCTGTTGCCA (site TTGCCGACTTG)
[2]
  recombinant barcode read abundance (log10): 0.0473

## TTGGCGACTTGGGTTCTAACCTGTTGCCA (site TTGGCGACTTG)
[2]
  recombinant barcode read abundance (log10): 0.118

## TTGGCGACTTGGGTTCTAACCTGTTGCCA (site TTGTCGACTTG)
[2]
  recombinant barcode read abundance (log10): 0.0276

## TTGGGAGCTTGGGTTCTAACCTGTTGCTG (site TTCGGAGCTCA)
[2]
  recombinant barcode read abundance (log10): 0.426

## TTGGGAGCTTGGGTTCTAACCTGTTGCTG (site TTGGGAGCTCA)
[2]
  recombinant barcode read abundance (log10): 2.92

## TTGGTACCTTGGGTTCTAACCTGTTGCCT (site TTGGTACCTAG)
[2]
  recombinant barcode read abundance (log10): 2.41

## TTGGTACCTTGGGTTCTAACCTGTTGCCT (site TTGGTCCCTAG)
[2]
  recombinant barcode read abundance (log10): 0.204

## TTGGTACCTTGGGTTCTAACCTGTTGCCT (site TTGGTGCCTAG)
[2]
  recombinant barcode read abundance (log10): 0.138

## TTGGTACCTTGGGTTCTAACCTGTTGCCT (site TTGGTTCCTAG)
[2]
  recombinant barcode read abundance (log10): 0.116

## TTGGTAGCTTGGGTTCTAACCTGTTGCCT (site TTGGAAGCTAG)
[2]
  recombinant barcode read abundance (log10): 0.255

## TTGGTAGCTTGGGTTCTAACCTGTTGCCT (site TTGGCAGCTAG)
[2]
  recombinant barcode read abundance (log10): 0.148

## TTGGTAGCTTGGGTTCTAACCTGTTGCCT (site TTGGGAGCTAG)
[2]
  recombinant barcode read abundance (log10): 0.127

## TTGGTAGCTTGGGTTCTAACCTGTTGCCT (site TTGGTAGCTAG)
[2]
  recombinant barcode read abundance (log10): 1.63

## TTGGTGCCTTGGGTTCTAACCTGTTGCCT (site TTGGTACCTAG)
[2]
  recombinant barcode read abundance (log10): 1.97

## TTGGTGCCTTGGGTTCTAACCTGTTGCCT (site TTGGTCCCTAG)
[2]
  recombinant barcode read abundance (log10): 0.0442

## TTGGTGCCTTGGGTTCTAACCTGTTGCCT (site TTGGTGCCTAG)
[2]
  recombinant barcode read abundance (log10): 2.13

## TTGGTGCCTTGGGTTCTAACCTGTTGCCT (site TTGGTTCCTAG)
[2]
  recombinant barcode read abundance (log10): 0.0399

## TTGTACCCTTGGGTTCTAACCTGTTGCCT (site TTCTTCCCTAG)
[2]
  recombinant barcode read abundance (log10): 0

## TTGTACCCTTGGGTTCTAACCTGTTGCCT (site TTGTACCCTAG)
[2]
  recombinant barcode read abundance (log10): 1.45

## TTGTCGTCTTGGGTTCTAACCTGTTGCCT (site ATGTAGTCTAG)
[2]
  recombinant barcode read abundance (log10): 0.0378

## TTGTCGTCTTGGGTTCTAACCTGTTGCCT (site TTGTCGTCTAG)
[2]
  recombinant barcode read abundance (log10): 1.25

## TTGTGAGCTTGGGTTCTAACCTGTTGCGC (site AGTCACACTCT)
[2]
  recombinant barcode read abundance (log10): 0.182

## TTGTGAGCTTGGGTTCTAACCTGTTGCGC (site TTGTGAGCTGC)
[2]
  recombinant barcode read abundance (log10): 1.68
